Structures can show the parent of a compound that is named as a salt.
Legend:
[1] = Particle size by laser light scattering; type: physicochemical; conditions: drug substance used in the compositions of Example 12
Method: The average particle size is determined by laser light scattering using a Malvern-Mastersizer Apparatus MS 2000. The particles to be subjected to the particle size measurement are first suspended in isoparafinic oil (Isopar®) and then subjected to a size determination in a Malvern Mastersizer MS 2000 instrument. Usually, 100-800 mg of substance is dispersed in 5-8 ml of […]. According to manufacturer's information, the Malvern Mastersizers allow for a measurement of particle size distributions in the range of 20 nm to 2000 µm, with a precision of better than 0.5%. Particle sizes are determined by measuring the angular distribution of laser light scattered by a homogeneous suspension of particles. The size distribution is determined from the light scattering data using the theory of light scattering developed by Gustav Mie.

[2] = Water-sorption analysis; type: physicochemical; conditions: for release of crystal water: at 0 % RH, nitrogen flow 200 ml/min; for release of crystal water / water sorption started at: 25°C; for water sorption started at: cycles from 0 % RH to 95 % RH
Method: An amount of 20 mg of zipasidone hydrogensulphate dihydrate was exposed to a water-sorption analysis (Surface Measurement Systems Ltd., London, UK; two complete 11-step circles from 0 % RH to 95 % RH at the temperature 25°C and nitrogen flow rate 200 ml/min; minimal retention time at the step when dm/dt < 0.002% is 10 minutes and maximal 360 minutes) and compared to the same test of Ziprasidone hydrochloride monohydrate.

[3] = 2 weeks

Compound	Particle size [1]	release of crystal water [2]	stability to hydratation ([2]; compared with Ziprasidone hydrochloride salt)	water sorption started at [2]	HPLC purity of Ziprasidone after two-week stability test [3]
O.O.O=C1Cc2cc(CCN3CCN(c4nsc5ccccc45)CC3)c(Cl)cc2N1.O=S(=O)(O)O [Ziprasidone hydrogensulphate dihydrate, 5-[2-[4-(1,2-benzisothiazol-3-yl)-1-piperazinyl]ethyl]-6-chloro-1,3-dihydro-2H-indol-2-one hydrogensulphate dihydrate]	26 µm	does not release crystal water	more stable to hydratation	50 % RH	99.7%
O=C1Cc2cc(CCN3CCN(c4nsc5ccccc45)CC3)c(Cl)cc2N1 [Ziprasidone hydrochloride monohydrate, reference compound]	–	release crystal water	–	30 % RH	–

Source: patent publication EP1892243A1, “Polymorphic forms of ziprasidone sulphate salts” (KRKA, tovarna zdravil, d.d., Novo mesto, priority 2006, dated 2008)
